Source: paper PMC4861708 (Frontiers in Cell and Developmental Biology, 2016)
Converted amounts (≈) assume the structure as drawn. Where a SMILES comes first, the peptide text is derived from it. [ ]: non-standard residue; d: D form. The star is where a group is joined. Orn(α-tetramethylguanidino) = CN(C)C(=N[C@@H](CCCN)C(=O)*)N(C)C; Orn = NCCC[C@H](N)C(=O)O

Experiments:
P. aeruginosa elastase = target: T1, P. aeruginosa elastase (Pseudomonas aeruginosa, UniProt P14756); test: Elastase assay (proteolytic stability); type: in vitro ADME; conditions: elastase 12 units/mL, pH 8.3, 37°C
T1 construct: purchased Merck (Darmstadt, Germany)
T1 sequence (P14756 198-498): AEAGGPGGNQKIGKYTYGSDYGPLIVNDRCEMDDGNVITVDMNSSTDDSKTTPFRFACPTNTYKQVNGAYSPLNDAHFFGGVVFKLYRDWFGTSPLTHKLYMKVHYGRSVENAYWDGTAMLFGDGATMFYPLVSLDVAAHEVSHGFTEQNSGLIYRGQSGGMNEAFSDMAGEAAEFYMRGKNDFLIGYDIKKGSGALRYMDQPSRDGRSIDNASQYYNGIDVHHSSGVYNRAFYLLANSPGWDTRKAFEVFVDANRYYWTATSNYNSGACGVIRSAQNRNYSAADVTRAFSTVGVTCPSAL
Protocol: A stock solution of P. aeruginosa elastase (0.26 U/μL) was prepared in Tris-HCl (5 mmol/L, pH 8.3) and stored at −80°C. Peptides (0.5 g/L in 5 mmol/L Tris-HCl, pH 8.3) were incubated with elastase (0.012 U/μL) at 37°C under constant shaking (450 rpm) for 0, 0.5, 2, 4, and 6 h. Aliquots (10.5 μL) were precipitated with a mixture of acetonitrile and ethanol (1:1 v/v) containing 0.1% TFA (21 μL), centrifuged, the supernatant transferred into a new tube, and dried in vacuum. Samples were dissolved in aqueous acetonitrile (3% v/v) containing TFA (0.1% v/v) and analyzed by RP-HPLC using the conditions described above.

[1] = test system: P. aeruginosa DSM 1117 (ATCC 27853); type: cell-based, Pseudomonas aeruginosa; conditions: DSM 1117, 24 h
Protocol: (§1) MICs of P. aeruginosa strains DSM 1117 (ATCC 27853), DSM 3227 (ATCC 19429), and DSM 9644 were determined in a microdilution broth assay using 50 or 100% MHB (11.5 and 23 g/L MHB, respectively) whereas MICs of E. coli DSM 1103 (ATCC 25922) and K. pneumoniae DSM 681 (ATCC 10031) were determined in TSB (30 g/L TSB). Peptides (1 g/L in water) were serially two-fold diluted in a 96-well microtiter plate (PS, sterile, flat bottom) in 50 μL of the corresponding medium to final concentrations of 512–4 μg/mL. Bacteria were grown in nutrient broth overnight and diluted to a cell concentration of 1.5 × 10^7 cells/mL in the corresponding medium. Cell densities were determined by using the McFarland standard as reference. An aliquot (50 μL) of the cell culture was added to each well and incubated (37°C, 24 h). The OD595 was determined in a SpectraMax 340PC (Molecular Devices, Sunnyvale, USA). Additionally, MIC values were also determined for high bacteria densities (5 × 10^8 cells/mL) corresponding to the conditions used for TEM, as described above.

E. coli DSM 1103 = test: Transmission electron microscopy, morphological changes; type: cell-based, Escherichia coli; conditions: 1 h
Protocol: Peptide-bacteria mixtures were fixed (2% glutaraldehyde, 5 mmol/L CaCl2, 10 mmol/L MgCl2 in 0.1 mol/L sodium cacodylate buffer, pH 7.4) overnight at 4°C. […] Samples were rinsed with distilled water (5 × 10 min), incubated with aqueous uranylacetate (0.5% w/v) for 1 h at 4°C, washed with distilled water (3 × 10 min), and embedded in Epon. The hardened blocks were sectioned (50 nm) on a UCT ultramicrotome (Leica, Vienna, Austria), stained with uranyl acetate and lead citrate on an AC20 system (Leica), and visualized at a Tecnai 12 electron microscope (FEI, Eindhoven, The Netherlands) at 80 kV. Morphological effects were quantified on average for 25 cells per condition.

[2] = test system: E. coli DSM 1103 (ATCC 25922); type: cell-based, Escherichia coli; conditions: DSM 1103, 24 h
Protocol: as §1

CC(C)C[C@H](NC(=O)[C@H](CCCNC(=N)N)NC(=O)[C@@H]1CCCN1C(=O)[C@H](Cc1c[nH]cn1)NC(=O)[C@@H]1CCCN1C(=O)[C@@H]1CCCN1C(=O)[C@H](CCCNC(=N)N)NC(=O)[C@@H]1CCCN1C(=O)[C@H](CCCNC(=N)N)NC(=O)[C@@H]1CCCN1C(=O)[C@H](CCCN)NC(=O)[C@H](Cc1ccc(O)cc1)NC(=O)[C@@H](NC(=O)[C@@H]1CCCN1C(=O)[C@H](CCCNC(=N)N)NC(=O)[C@H](CCCN)NC(=O)[C@H](Cc1c[nH]c2ccccc12)NC(=O)[C@H](CCCN)NC(=O)[C@H](Cc1c[nH]c2ccccc12)NC(=O)[C@H](CCCN)NC(=O)[C@H](Cc1c[nH]c2ccccc12)NC(=O)[C@H](CCCN)N=C(N(C)C)N(C)C)C(C)C)C(=O)O [Api794, gu-O(WO)3RPVYOPRPRPPHPRL-OH] ({Orn(α-tetramethylguanidino)}-W[Orn]W[Orn]W[Orn]RPVY[Orn]PRPRPPHPRL-OH)
remaining at 6 h, 0.5 g/L (P. aeruginosa elastase; Pseudomonas aeruginosa, isolated enzyme elastase, after 6 h, read-out: Peptide remaining with elastase): 79 ± 6% | MIC P. aeruginosa DSM 1117, high inoculum [1]: 64 µg/mL (≈ 21.6 µM) | Cell: r, ruptured (E. coli DSM 1103; 16 µg/mL): 0% | DNA/Ribosomes relocalized (E. coli DSM 1103; 16 µg/mL): 0% | Fragments: +++, long and thick (E. coli DSM 1103; 16 µg/mL): 0% | Fragments: ++, long and thin (E. coli DSM 1103; 16 µg/mL): 23% | Fragments: +, small and thin (E. coli DSM 1103; 16 µg/mL): 40% | Fragments: -, no (E. coli DSM 1103; 16 µg/mL): 37% | Fragments: LV, large vesicles (E. coli DSM 1103; 16 µg/mL): 0% | Membrane: i, intact (E. coli DSM 1103; 16 µg/mL): 33% | Membrane: w, wrinkled (E. coli DSM 1103; 16 µg/mL): 67% | Vesicle release strong (E. coli DSM 1103; 16 µg/mL): 100% | Cell: r, ruptured (E. coli DSM 1103; 64 µg/mL): 0% | DNA/Ribosomes relocalized (E. coli DSM 1103; 64 µg/mL): 0% | Fragments: +++, long and thick (E. coli DSM 1103; 64 µg/mL): 23% | Fragments: ++, long and thin (E. coli DSM 1103; 64 µg/mL): 33% | Fragments: +, small and thin (E. coli DSM 1103; 64 µg/mL): 27% | Fragments: -, no (E. coli DSM 1103; 64 µg/mL): 17% | Fragments: LV, large vesicles (E. coli DSM 1103; 64 µg/mL): 3% | Membrane: i, intact (E. coli DSM 1103; 64 µg/mL): 100% | Membrane: w, wrinkled (E. coli DSM 1103; 64 µg/mL): 0% | Vesicle release strong (E. coli DSM 1103; 64 µg/mL): 97% | Cell: r, ruptured (E. coli DSM 1103; 256 µg/mL): 0% | DNA/Ribosomes relocalized (E. coli DSM 1103; 256 µg/mL): 0% | Fragments: +++, long and thick (E. coli DSM 1103; 256 µg/mL): 3% | Fragments: ++, long and thin (E. coli DSM 1103; 256 µg/mL): 37% | Fragments: +, small and thin (E. coli DSM 1103; 256 µg/mL): 43% | Fragments: -, no (E. coli DSM 1103; 256 µg/mL): 17% | Fragments: LV, large vesicles (E. coli DSM 1103; 256 µg/mL): 93% | Membrane: i, intact (E. coli DSM 1103; 256 µg/mL): 3% | Membrane: w, wrinkled (E. coli DSM 1103; 256 µg/mL): 97% | Vesicle release strong (E. coli DSM 1103; 256 µg/mL): 97% | Cell: r, ruptured (E. coli DSM 1103; 512 µg/mL): 3% | DNA/Ribosomes relocalized (E. coli DSM 1103; 512 µg/mL): 30% | Fragments: +++, long and thick (E. coli DSM 1103; 512 µg/mL): 17% | Fragments: ++, long and thin (E. coli DSM 1103; 512 µg/mL): 30% | Fragments: +, small and thin (E. coli DSM 1103; 512 µg/mL): 37% | Fragments: -, no (E. coli DSM 1103; 512 µg/mL): 17% | Fragments: LV, large vesicles (E. coli DSM 1103; 512 µg/mL): 97% | Membrane: i, intact (E. coli DSM 1103; 512 µg/mL): 93% | Membrane: w, wrinkled (E. coli DSM 1103; 512 µg/mL): 7% | Vesicle release strong (E. coli DSM 1103; 512 µg/mL): 93% | MIC E. coli ATCC 25922 [2]: 16 µg/mL (≈ 5.4 µM) | MIC E. coli DSM 1103, high inoculum [2]: 64 µg/mL (≈ 21.6 µM)

CC[C@H](C)[C@H](NC(=O)[C@H](CCCN)N=C(N(C)C)N(C)C)C(=O)N[C@@H](CCCN)C(=O)N[C@H](C(=O)N[C@@H](CCCN)C(=O)N[C@@H](CCCNC(=N)N)C(=O)N1CCC[C@H]1C(=O)N[C@H](C(=O)N[C@@H](Cc1ccc(O)cc1)C(=O)N[C@@H](CCCN)C(=O)N1CCC[C@H]1C(=O)N[C@@H](CCCNC(=N)N)C(=O)N1CCC[C@H]1C(=O)N[C@@H](CCCNC(=N)N)C(=O)N1CCC[C@H]1C(=O)N1CCC[C@H]1C(=O)N[C@@H](Cc1c[nH]cn1)C(=O)N1CCC[C@H]1C(=O)N[C@@H](CCCNC(=N)N)C(=O)N[C@@H](CC(C)C)C(=O)O)C(C)C)[C@@H](C)CC [Api795, gu-O(IO)2RPVYOPRPRPPHPRL-OH] ({Orn(α-tetramethylguanidino)}-I[Orn]I[Orn]RPVY[Orn]PRPRPPHPRL-OH)
Peptide detected with elastase (P. aeruginosa elastase; after 30 min and all later time points): 92 ± 4% | MIC P. aeruginosa DSM 1117, high inoculum [1]: 16 µg/mL (≈ 6.35 µM) | Cell: r, ruptured (E. coli DSM 1103; 8 µg/mL): 0% | DNA/Ribosomes relocalized (E. coli DSM 1103; 8 µg/mL): 0% | Fragments: +++, long and thick (E. coli DSM 1103; 8 µg/mL): 0% | Fragments: ++, long and thin (E. coli DSM 1103; 8 µg/mL): 23% | Fragments: +, small and thin (E. coli DSM 1103; 8 µg/mL): 63% | Fragments: -, no (E. coli DSM 1103; 8 µg/mL): 13% | Fragments: LV, large vesicles (E. coli DSM 1103; 8 µg/mL): 0% | Membrane: i, intact (E. coli DSM 1103; 8 µg/mL): 3% | Membrane: w, wrinkled (E. coli DSM 1103; 8 µg/mL): 97% | Vesicle release weak (E. coli DSM 1103; 8 µg/mL): 30% | Cell: r, ruptured (E. coli DSM 1103; 32 µg/mL): 0% | DNA/Ribosomes relocalized (E. coli DSM 1103; 32 µg/mL): 0% | Fragments: +++, long and thick (E. coli DSM 1103; 32 µg/mL): 0% | Fragments: ++, long and thin (E. coli DSM 1103; 32 µg/mL): 10% | Fragments: +, small and thin (E. coli DSM 1103; 32 µg/mL): 57% | Fragments: -, no (E. coli DSM 1103; 32 µg/mL): 33% | Fragments: LV, large vesicles (E. coli DSM 1103; 32 µg/mL): 0% | Membrane: i, intact (E. coli DSM 1103; 32 µg/mL): 7% | Membrane: w, wrinkled (E. coli DSM 1103; 32 µg/mL): 93% | Vesicle release weak (E. coli DSM 1103; 32 µg/mL): 43% | Cell: r, ruptured (E. coli DSM 1103; 128 µg/mL): 0% | DNA/Ribosomes relocalized (E. coli DSM 1103; 128 µg/mL): 0% | Fragments: +++, long and thick (E. coli DSM 1103; 128 µg/mL): 0% | Fragments: ++, long and thin (E. coli DSM 1103; 128 µg/mL): 30% | Fragments: +, small and thin (E. coli DSM 1103; 128 µg/mL): 53% | Fragments: -, no (E. coli DSM 1103; 128 µg/mL): 17% | Fragments: LV, large vesicles (E. coli DSM 1103; 128 µg/mL): 0% | Membrane: i, intact (E. coli DSM 1103; 128 µg/mL): 17% | Membrane: w, wrinkled (E. coli DSM 1103; 128 µg/mL): 83% | Vesicle release weak (E. coli DSM 1103; 128 µg/mL): 47% | Cell: r, ruptured (E. coli DSM 1103; 512 µg/mL): 0% | DNA/Ribosomes relocalized (E. coli DSM 1103; 512 µg/mL): 30% | Fragments: +++, long and thick (E. coli DSM 1103; 512 µg/mL): 0% | Fragments: ++, long and thin (E. coli DSM 1103; 512 µg/mL): 37% | Fragments: +, small and thin (E. coli DSM 1103; 512 µg/mL): 63% | Fragments: -, no (E. coli DSM 1103; 512 µg/mL): 0% | Fragments: LV, large vesicles (E. coli DSM 1103; 512 µg/mL): 0% | Membrane: i, intact (E. coli DSM 1103; 512 µg/mL): 33% | Membrane: w, wrinkled (E. coli DSM 1103; 512 µg/mL): 67% | Vesicle release weak (E. coli DSM 1103; 512 µg/mL): 60% | MIC E. coli ATCC 25922 [2]: 8 µg/mL (≈ 3.18 µM) | MIC E. coli DSM 1103, high inoculum [2]: 32 µg/mL (≈ 12.7 µM)
